From US20260262643A1, “HERBICIDAL BENZOXAZINES” (FMC CORPORATION, priority 2022, published 2026)

Legend:
wheat [1] = assay: Test A preemergence; format: in vivo, Triticum aestivum
Procedure, shortened: (§1)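 Weeds and crops in loam–sand blend were sprayed preemergence onto soil or postemergence at 2–10 cm (one- to two-leaf stage). Test chemicals were in a non-phytotoxic solvent with surfactant. After 10 days in the greenhouse, injury was rated visually against untreated controls on a 0 (no effect) to 100 (complete control) scale.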

goosegrass [2] = assay: Test A postemergence; format: in vivo, Eleusine indica
Procedure, shortened: as §1

ryegrass, Italian [3] = assay: Test A postemergence; format: in vivo, Lolium multiflorum
Procedure, shortened: as §1

blackgrass [4] = assay: Test A preemergence; format: in vivo, Alopecurus myosuroides
Procedure, shortened: as §1

oat, wild [5] = assay: Test A preemergence; format: in vivo, Avena fatua
Procedure, shortened: as §1

rice = assay: Test B flooded paddy test; format: in vivo, Oryza sativa; conditions: 250 g ai/ha, Flood, 13 days, 0 to 100 scale (0 no effect, 100 complete control)
Procedure, shortened: (§2)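 Application into standing water (3 cm above soil) at the two-leaf stage; flood depth held constant. Evaluation: day 13, visual comparison with controls, 0 = no injury, 100 = complete control.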

pigweed, palmer [6] = assay: Test A preemergence; format: in vivo, Amaranthus palmeri
Procedure, shortened: as §1

horseweed = assay: Test A postemergence; format: in vivo, Erigeron canadensis
Procedure, shortened: as §1

foxtail, giant [7] = assay: Test A postemergence; format: in vivo, Setaria faberi
Procedure, shortened: as §1

oat, wild [8] = assay: Test A postemergence; format: in vivo, Avena fatua
Procedure, shortened: as §1

blackgrass [9] = assay: Test A postemergence; format: in vivo, Alopecurus myosuroides
Procedure, shortened: as §1

ryegrass, Italian [10] = assay: Test A preemergence; format: in vivo, Lolium multiflorum
Procedure, shortened: as §1

wheat [11] = assay: Test A postemergence; format: in vivo, Triticum aestivum
Procedure, shortened: as §1

corn [12] = assay: Test A postemergence; format: in vivo, Zea mays
Procedure, shortened: as §1

ducksalad = assay: Test B flooded paddy test; format: in vivo, Heteranthera limosa; conditions: 250 g ai/ha, Flood, 13 days, 0 to 100 scale (0 no effect, 100 complete control)
Procedure, shortened: as §2

ragweed [13] = assay: Test A preemergence; format: in vivo, Ambrosia artemisiifolia
Procedure, shortened: as §1

goosegrass [14] = assay: Test A preemergence; format: in vivo, Eleusine indica
Procedure, shortened: as §1

foxtail, giant [15] = assay: Test A preemergence; format: in vivo, Setaria faberi
Procedure, shortened: as §1

galium = assay: Test A postemergence; format: in vivo, Galium aparine
Procedure, shortened: as §1

soybean [16] = assay: Test A preemergence; format: in vivo, Glycine max
Procedure, shortened: as §1

barnyardgrass = assay: Test B flooded paddy test; format: in vivo, Echinochloa crus-galli; conditions: 250 g ai/ha, Flood, 13 days, 0 to 100 scale (0 no effect, 100 complete control)
Procedure, shortened: as §2

pigweed, palmer [17] = assay: Test A postemergence; format: in vivo, Amaranthus palmeri
Procedure, shortened: as §1

soybean [18] = assay: Test A postemergence; format: in vivo, Glycine max
Procedure, shortened: as §1

kochia [19] = assay: Test A preemergence; format: in vivo, Bassia scoparia
Procedure, shortened: as §1

sedge, umbrella = assay: Test B flooded paddy test; format: in vivo, Cyperus difformis; conditions: 250 g ai/ha, Flood, 13 days, 0 to 100 scale (0 no effect, 100 complete control)
Procedure, shortened: as §2

corn [20] = assay: Test A preemergence; format: in vivo, Zea mays
Procedure, shortened: as §1

kochia [21] = assay: Test A postemergence; format: in vivo, Bassia scoparia
Procedure, shortened: as §1

ragweed [22] = assay: Test A postemergence; format: in vivo, Ambrosia artemisiifolia
Procedure, shortened: as §1

[23] = 125 g ai/ha, visual injury after 10 days, 0 to 100 scale, 0 is no effect, 100 is complete control
[24] = 500 g ai/ha, 0 to 100 scale (0 no effect, 100 complete control), 10 days
[25] = 125 g ai/ha, postemergence, 10 days, visual injury, 0 to 100 scale (0 no effect, 100 complete control)
[26] = 500 g ai/ha, Postemergence, 0 to 100 scale

Cc1ncn(-c2cccc(C(=O)N3C[C@H](C)Oc4c(C)cccc43)c2)n1 [Compound 51]
Plant response rating, Wheat (wheat [1]; [23]): 20
Plant response rating, Wheat (wheat [1]; [24]): 60
Plant response rating, Goosegrass (goosegrass [2]; [25]): 40
Plant response rating, Goosegrass (goosegrass [2]; [26]): 80
Plant response rating, Ryegrass, Italian (ryegrass, Italian [3]; [25]): 70
Plant response rating, Ryegrass, Italian (ryegrass, Italian [3]; [26]): 90
Plant response rating, Blackgrass (blackgrass [4]; [23]): 30
Plant response rating, Blackgrass (blackgrass [4]; [24]): 60
Plant response rating, Oat, Wild (oat, wild [5]; [23]): 30
Plant response rating, Oat, Wild (oat, wild [5]; [24]): 90
Plant response rating, Rice (rice): 15
Plant response rating, Pigweed, Palmer (pigweed, palmer [6]; [23]): 0
Plant response rating, Pigweed, Palmer (pigweed, palmer [6]; [24]): 60
Plant response rating, Horseweed (horseweed; [25]): 0
Plant response rating, Horseweed (horseweed; [26]): 20
Plant response rating, Foxtail, Giant (foxtail, giant [7]; [25]): 90
Plant response rating, Foxtail, Giant (foxtail, giant [7]; [26]): 90
Plant response rating, Oat, Wild (oat, wild [8]; [25]): 30
Plant response rating, Oat, Wild (oat, wild [8]; [26]): 70
Plant response rating, Blackgrass (blackgrass [9]; [25]): 40
Plant response rating, Blackgrass (blackgrass [9]; [26]): 50
Plant response rating, Ryegrass, Italian (ryegrass, Italian [10]; [23]): 90
Plant response rating, Ryegrass, Italian (ryegrass, Italian [10]; [24]): 100
Plant response rating, Wheat (wheat [11]; [25]): 30
Plant response rating, Wheat (wheat [11]; [26]): 80
Plant response rating, Corn (corn [12]; [25]): 30
Plant response rating, Corn (corn [12]; [26]): 50
Plant response rating, Ducksalad (ducksalad): 65
Plant response rating, Ragweed (ragweed [13]; [23]): 0
Plant response rating, Ragweed (ragweed [13]; [24]): 0
Plant response rating, Goosegrass (goosegrass [14]; [23]): 90
Plant response rating, Goosegrass (goosegrass [14]; [24]): 100
Plant response rating, Foxtail, Giant (foxtail, giant [15]; [23]): 100
Plant response rating, Foxtail, Giant (foxtail, giant [15]; [24]): 100
Plant response rating, Galium (galium; [25]): 80
Plant response rating, Galium (galium; [26]): 100
Plant response rating, Soybean (soybean [16]; [23]): 90
Plant response rating, Soybean (soybean [16]; [24]): 100
Plant response rating, Barnyardgrass (barnyardgrass): 25
Plant response rating, Pigweed, Palmer (pigweed, palmer [17]; [25]): 20
Plant response rating, Pigweed, Palmer (pigweed, palmer [17]; [26]): 50
Plant response rating, Soybean (soybean [18]; [25]): 100
Plant response rating, Soybean (soybean [18]; [26]): 100
Plant response rating, Kochia (kochia [19]; [23]): 70
Plant response rating, Kochia (kochia [19]; [24]): 90
Plant response rating, Sedge, Umbrella (sedge, umbrella): 80
Plant response rating, Corn (corn [20]; [23]): 20
Plant response rating, Corn (corn [20]; [24]): 50
Plant response rating, Kochia (kochia [21]; [25]): 60
Plant response rating, Kochia (kochia [21]; [26]): 70
Plant response rating, Ragweed (ragweed [22]; [25]): 0
Plant response rating, Ragweed (ragweed [22]; [26]): 0

Cc1ccc(-n2cncn2)cc1C(=O)N1C[C@H](C)Oc2c(C)cccc21 [Compound 57]
Plant response rating, Wheat (wheat [1]; [23]): 20
Plant response rating, Wheat (wheat [1]; [24]): 80
Plant response rating, Goosegrass (goosegrass [2]; [25]): 40
Plant response rating, Goosegrass (goosegrass [2]; [26]): 90
Plant response rating, Ryegrass, Italian (ryegrass, Italian [3]; [25]): 70
Plant response rating, Ryegrass, Italian (ryegrass, Italian [3]; [26]): 100
Plant response rating, Blackgrass (blackgrass [4]; [23]): 60
Plant response rating, Blackgrass (blackgrass [4]; [24]): 90
Plant response rating, Oat, Wild (oat, wild [5]; [23]): 50
Plant response rating, Oat, Wild (oat, wild [5]; [24]): 90
Plant response rating, Rice (rice): 0
Plant response rating, Pigweed, Palmer (pigweed, palmer [6]; [23]): 30
Plant response rating, Pigweed, Palmer (pigweed, palmer [6]; [24]): 100
Plant response rating, Horseweed (horseweed; [25]): 0
Plant response rating, Horseweed (horseweed; [26]): 20
Plant response rating, Foxtail, Giant (foxtail, giant [7]; [25]): 90
Plant response rating, Foxtail, Giant (foxtail, giant [7]; [26]): 90
Plant response rating, Oat, Wild (oat, wild [8]; [25]): 80
Plant response rating, Oat, Wild (oat, wild [8]; [26]): 90
Plant response rating, Blackgrass (blackgrass [9]; [25]): 50
Plant response rating, Blackgrass (blackgrass [9]; [26]): 80
Plant response rating, Ryegrass, Italian (ryegrass, Italian [10]; [23]): 80
Plant response rating, Ryegrass, Italian (ryegrass, Italian [10]; [24]): 100
Plant response rating, Wheat (wheat [11]; [25]): 70
Plant response rating, Wheat (wheat [11]; [26]): 90
Plant response rating, Corn (corn [12]; [25]): 70
Plant response rating, Corn (corn [12]; [26]): 80
Plant response rating, Ducksalad (ducksalad): 65
Plant response rating, Ragweed (ragweed [13]; [23]): 0
Plant response rating, Ragweed (ragweed [13]; [24]): 50
Plant response rating, Goosegrass (goosegrass [14]; [23]): 90
Plant response rating, Goosegrass (goosegrass [14]; [24]): 100
Plant response rating, Foxtail, Giant (foxtail, giant [15]; [23]): 100
Plant response rating, Foxtail, Giant (foxtail, giant [15]; [24]): 100
Plant response rating, Galium (galium; [25]): 80
Plant response rating, Galium (galium; [26]): 100
Plant response rating, Soybean (soybean [16]; [23]): 100
Plant response rating, Soybean (soybean [16]; [24]): 100
Plant response rating, Barnyardgrass (barnyardgrass): 15
Plant response rating, Pigweed, Palmer (pigweed, palmer [17]; [25]): 20
Plant response rating, Pigweed, Palmer (pigweed, palmer [17]; [26]): 50
Plant response rating, Soybean (soybean [18]; [25]): 100
Plant response rating, Soybean (soybean [18]; [26]): 100
Plant response rating, Kochia (kochia [19]; [23]): 40
Plant response rating, Kochia (kochia [19]; [24]): 30
Plant response rating, Sedge, Umbrella (sedge, umbrella): 90
Plant response rating, Corn (corn [20]; [23]): 0
Plant response rating, Corn (corn [20]; [24]): 40
Plant response rating, Kochia (kochia [21]; [25]): 10
Plant response rating, Kochia (kochia [21]; [26]): 30
Plant response rating, Ragweed (ragweed [22]; [25]): 30
Plant response rating, Ragweed (ragweed [22]; [26]): 50
